Columns and labels:
[1] = tested on: corneal epithelium in wounded mouse eyes; experiment: In vivo healing of mouse corneal epithelium (corneal wound model, fluorescein staining); design: species or system mouse (C57BL/6); conditions: 25 nM (about 3 mg/kg) in aqueous PBS, applied after 1.5 mm epithelial wound; within 16 hours post-treatment; compared to PBS and EGF controls
Description: The FIG. 1s a series of photomicrographs depicting the healing of a wound in the cornea of mouse eye, at time 0 and 16 hours post-wounding, upon treatment with certain compositions of the present invention. Wounds were introduced into the corneas of mice, and the mice treated immediately after wounding with vehicle (PBS), with 100 ng/ml of epidermal growth factor (EGF), or with 25 nM (about 3 mg/kg) of a (Pro-Pro-Gly)7 CMP of the invention (SEQ ID NO:1) (“Cmpd 3”), or of a (Hyp-Pro-Gly)7-SubP CMP-TC of the invention (SEQ ID NO:390) (“Cmpd 10”).
To examine the possible therapeutic effects of CMPs and CMP-TC conjugates of the invention, studies were designed to test certain CMPs and CMP-TC conjugates in an in vivo setting—the healing of the corneal epithelium in wounded mouse eyes. […] Wound size at various time points over 48 hours was examined by fluorescein staining (see Carlson et al., id.), and documented via fluorescent photomicrography, and quantified using Image J software (see Rush, J. S. et al., Investig. Ophthalmol. Visual Sci. 57 (14): 5864-5871 (2016); Rush, J. S. et al., Investig. Ophthalmol. Visual Sci. 55 (8): 4691-4699 (2014)). […]

[2] = triple helix of the peptide chains; Sakakibara et al. 1973; cited from earlier work

Row | Substance | wound healing in mouse cornea and corneal stroma (reduction in diameter and intensity of fluorescein fluorescence) [1] | melting temperature of a triple helix [2] [°C]
1 | (Hyp-Pro-Gly)7-SubP [Cmpd 10] | significant acceleration of wound healing | –
2 | (Pro-Pro-Gly)7 [Cmpd 3] | significant acceleration of wound healing | –
3 | (ProHypGly)10 | – | 58
4 | (ProProGly)10 | – | 24

— patent US12551525B2, “Collagen peptide-based medicament compositions and devices and methods of production and use thereof” (SUSTAIN HOLDINGS, LLC, priority 2017, dated 2026)
